The values that follow come from patent US7452887B2, “Quinoline- and isoquinoline-based compounds exhibiting ATP-utilizing enzyme inhibitory activity, and compositions, and uses thereof” (Amphora Discovery Corporation, priority 2004, dated 2008).

Common to all, as to test: HTS ATP-utilizing enzyme assay, off-chip mobility-shift (Caliper HTS 250)
Assay type in all cases: biochemical
Common to all, as to details: test compound 10 μM, kinase listed = active (greater than six-sigma from the mean activity of inactive compounds)

One assay concerns the target T1, FLT-3 (Homo sapiens, UniProt P36888).
T1 sequence (P36888 27-993): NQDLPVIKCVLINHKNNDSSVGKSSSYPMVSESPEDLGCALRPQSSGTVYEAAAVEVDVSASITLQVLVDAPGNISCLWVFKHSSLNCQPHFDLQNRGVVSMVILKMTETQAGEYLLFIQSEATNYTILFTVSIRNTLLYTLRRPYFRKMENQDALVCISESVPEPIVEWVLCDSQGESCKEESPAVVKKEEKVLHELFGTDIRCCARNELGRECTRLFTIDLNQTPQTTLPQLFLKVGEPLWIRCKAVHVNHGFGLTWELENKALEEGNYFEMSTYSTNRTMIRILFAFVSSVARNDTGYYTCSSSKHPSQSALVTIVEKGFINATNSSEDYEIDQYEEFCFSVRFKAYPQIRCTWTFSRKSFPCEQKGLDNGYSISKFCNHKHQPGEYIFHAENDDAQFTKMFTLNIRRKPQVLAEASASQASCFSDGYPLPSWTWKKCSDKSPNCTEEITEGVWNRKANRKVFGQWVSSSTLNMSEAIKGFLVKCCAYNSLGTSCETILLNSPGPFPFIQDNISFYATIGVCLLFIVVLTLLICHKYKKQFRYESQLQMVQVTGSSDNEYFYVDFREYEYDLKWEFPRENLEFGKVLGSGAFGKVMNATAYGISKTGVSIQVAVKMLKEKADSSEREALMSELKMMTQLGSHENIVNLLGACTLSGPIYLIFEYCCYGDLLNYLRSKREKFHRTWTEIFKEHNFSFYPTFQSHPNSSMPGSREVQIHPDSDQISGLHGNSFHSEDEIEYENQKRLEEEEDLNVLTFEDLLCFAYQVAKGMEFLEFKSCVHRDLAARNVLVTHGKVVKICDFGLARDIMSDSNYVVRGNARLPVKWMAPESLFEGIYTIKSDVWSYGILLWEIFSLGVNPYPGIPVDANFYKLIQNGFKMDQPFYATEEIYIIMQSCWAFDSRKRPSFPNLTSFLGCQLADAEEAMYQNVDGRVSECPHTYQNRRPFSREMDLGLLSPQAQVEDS
The procedure, abridged: (§1)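 Test compound at 10 μM final was incubated with kinase and peptide substrate in HEPES pH 7.5 buffer with Triton X-100 and BSA for 2.5 hrs at 20° C. to 22° C., then stopped with EDTA. Inhibition came from the substrate-to-phosphorylated-product ratio on a microfluidic mobility-shift read. EDTA wells served as 100% control.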

Another assay deals with C-TAK1 (Homo sapiens, UniProt P27448). In a few lines: as §1
For a further assay, the target named is KIT (Homo sapiens, UniProt P10721). The procedure, abridged:
as §1

Chain of KIT (P10721 26-976): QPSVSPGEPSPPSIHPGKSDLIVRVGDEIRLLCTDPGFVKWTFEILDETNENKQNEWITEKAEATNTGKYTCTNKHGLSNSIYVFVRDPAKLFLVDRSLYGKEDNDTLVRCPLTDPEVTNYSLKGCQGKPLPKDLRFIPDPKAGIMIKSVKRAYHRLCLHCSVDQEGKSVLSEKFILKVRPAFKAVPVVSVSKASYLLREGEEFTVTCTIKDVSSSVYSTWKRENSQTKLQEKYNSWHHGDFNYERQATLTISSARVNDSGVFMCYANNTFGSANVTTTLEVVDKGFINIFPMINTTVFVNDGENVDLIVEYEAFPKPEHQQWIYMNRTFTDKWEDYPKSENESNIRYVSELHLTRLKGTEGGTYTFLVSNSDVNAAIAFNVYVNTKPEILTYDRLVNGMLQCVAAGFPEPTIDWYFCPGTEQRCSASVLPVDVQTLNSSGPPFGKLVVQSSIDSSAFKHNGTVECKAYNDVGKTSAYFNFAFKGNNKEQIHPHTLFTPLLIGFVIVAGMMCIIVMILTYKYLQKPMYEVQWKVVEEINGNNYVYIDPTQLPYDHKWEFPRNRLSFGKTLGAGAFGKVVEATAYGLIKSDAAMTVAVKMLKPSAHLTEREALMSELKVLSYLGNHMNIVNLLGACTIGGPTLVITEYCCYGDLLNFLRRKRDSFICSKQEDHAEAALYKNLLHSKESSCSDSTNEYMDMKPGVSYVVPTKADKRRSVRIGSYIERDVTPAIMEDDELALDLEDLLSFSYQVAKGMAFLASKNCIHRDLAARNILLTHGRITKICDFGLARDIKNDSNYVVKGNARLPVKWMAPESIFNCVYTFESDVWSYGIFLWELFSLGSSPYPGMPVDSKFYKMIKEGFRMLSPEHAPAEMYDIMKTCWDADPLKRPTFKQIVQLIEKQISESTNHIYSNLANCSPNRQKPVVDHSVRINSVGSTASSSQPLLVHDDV
Chain of C-TAK1 (P27448 whole entry): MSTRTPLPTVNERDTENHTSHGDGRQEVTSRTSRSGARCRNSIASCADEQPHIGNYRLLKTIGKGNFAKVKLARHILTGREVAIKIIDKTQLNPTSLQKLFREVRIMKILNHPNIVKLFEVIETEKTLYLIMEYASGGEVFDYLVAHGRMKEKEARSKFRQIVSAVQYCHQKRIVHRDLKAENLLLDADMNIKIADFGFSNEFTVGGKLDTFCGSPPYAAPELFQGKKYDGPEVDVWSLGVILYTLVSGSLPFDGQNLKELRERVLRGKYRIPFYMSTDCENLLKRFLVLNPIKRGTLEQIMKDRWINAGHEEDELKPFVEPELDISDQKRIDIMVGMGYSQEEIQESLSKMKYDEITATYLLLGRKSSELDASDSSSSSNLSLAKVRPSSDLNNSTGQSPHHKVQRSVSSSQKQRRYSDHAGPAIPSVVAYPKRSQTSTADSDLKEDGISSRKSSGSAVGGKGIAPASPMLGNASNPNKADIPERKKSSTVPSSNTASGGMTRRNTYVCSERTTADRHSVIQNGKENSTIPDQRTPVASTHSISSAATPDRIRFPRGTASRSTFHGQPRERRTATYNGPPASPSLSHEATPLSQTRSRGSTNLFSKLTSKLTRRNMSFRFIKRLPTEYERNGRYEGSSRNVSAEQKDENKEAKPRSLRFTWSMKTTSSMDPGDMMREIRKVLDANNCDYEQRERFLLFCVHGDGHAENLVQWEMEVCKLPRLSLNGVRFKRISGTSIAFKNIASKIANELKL

In the case of `CN1CCN(c2ccc(Nc3ccnc4ccc(-c5ccc(O)cc5)cc34)cc2)CC1` [4-(4-(4-(4-methylpiperazin-1-yl)phenylamino)quinolin-6-yl)phenol], the Activity result on FLT-3 is recorded as “FLT-3”.
In the case of `CN1CCN(c2ccc(Nc3ccnc4ccc(-c5ccc(F)cc5)cc34)cc2)CC1` [6-(4-fluorophenyl)-N-(4-(4-methylpiperazin-1-yl)phenyl)quinolin-4-amine], at C-TAK1, the Activity result is “C-TAK1”.
Consider `COc1ccc(-c2ccc3nccc(Nc4ccc(N5CCNCC5)cc4)c3c2)cc1` [6-(4-methoxyphenyl)-N-(4-(piperazin-1-yl)phenyl)quinolin-4-amine], for which the Activity entry on KIT is on record as “KIT”; at FLT-3 it was “FLT-3”.
As to `COc1ccc(-c2ccc3nccc(N(C)c4ccc(N5CCN(C)CC5)cc4)c3c2)cc1` [6-(4-methoxyphenyl)-N-methyl-N-(4-(4-methylpiperazin-1-yl)phenyl)quinolin-4-amine], the Activity entry at KIT is on record as “KIT”; at FLT-3, “FLT-3”.
Regarding `c1ccc(-c2ccc3nccc(Nc4ccc(N5CCNCC5)cc4)c3c2)cc1` [6-phenyl-N-(4-(piperazin-1-yl)phenyl)quinolin-4-amine], the Activity entry on KIT is recorded as “KIT”; on FLT-3 it was “FLT-3”.
Turning to `CN1CCN(c2ccc(Nc3ccnc4ccc(-c5cccc6ccccc56)cc34)cc2)CC1` [N-(4-(4-methylpiperazin-1-yl)phenyl)-6-(naphthalen-1-yl)quinolin-4-amine], the Activity result is “C-TAK1” on C-TAK1 and “KIT” on KIT.
As for `CN1CCN(c2ccc(Nc3ccnc4ccc(-c5ccc6ccccc6c5)cc34)cc2)CC1` [N-(4-(4-methylpiperazin-1-yl)phenyl)-6-(naphthalen-2-yl)quinolin-4-amine], on C-TAK1, the Activity result is recorded as “C-TAK1”.
For the compound `CN1CCN(c2ccc(Nc3ccnc4ccc(-c5ccncc5)cc34)cc2)CC1` [N-(4-(4-methylpiperazin-1-yl)phenyl)-6-(pyridin-4-yl)quinolin-4-amine], the results for the Activity entry on KIT and on FLT-3 were “KIT” and “FLT-3”, respectively.
